ChEMBL document CHEMBL1145550, “Halichonadin E, a dimeric sesquiterpenoid from the sponge Halichondria sp” (J Nat Prod, 2008)
≈ marks a conversion by molar mass, not a printed value.

Key:
L1210 = assay: Cytotoxicity against mouse L1210 cells; assay type: functional, cell-based
KB = assay: Cytotoxicity against human KB cells; assay type: functional, cell-based

C=C1CCC[C@]2(C)CC[C@@H](C(C)C)[C@H](NC(=O)N[C@]3(C)CC[C@@H]4[C@H]([C@@H]5[C@H](C)CC[C@H]53)C4(C)C)[C@@H]12 [HALICHONADIN E]
IC50 (L1210): 3 µg/mL (≈ 6.4 µM)
IC50 (KB): 2.6 µg/mL (≈ 5.55 µM)
